Measured values taken from patent publication US8278309B2, “Synthetic mimetics of host defense and uses thereof” (priority 2008, dated 2012).
Converted amounts (≈) assume the structure as drawn. Read-outs that look alike come from different tables or passages of the source. Blank lines part the entries; values can stand above or below the molecule they belong to.

Legend:
[1] = test system: S. aureus; assay: MIC or MIC90 vs S. aureus (selectivity table); type: cell-based; conditions: * marks MIC90
[2] = test system: MRSA ATCC 33591; assay: Serial passage resistance, MRSA; type: cell-based, S. aureus; conditions: serial passage at 0.5×MIC
Experimental: (§1) Frozen bacterial stocks (20 μL) of S. aureus ATCC29213 or methicillin-resistant S. aureus (MRSA ATCC 33591) were inoculated into 3 mL cation-adjusted Mueller-Hinton medium and incubated at 37° C. on a shaker platform (250 rpm) overnight. The suspension was diluted to approximately 5×10^5 cfu/mL and inoculated into a polypropylene (Costar) 96-well round bottom plate (90 μL volumes). Compound stock solutions of Compound A and norfloxacin (Sigma Aldrich, St. Louis, Mo.; Catalogue# N9890) were prepared in DMSO and serial two-fold dilutions of compound were made in 0.01% acetic acid, 0.2% bovine serum albumin directly in the wells of the polypropylene plate at 10 μL/well. Final concentrations of Compound A were 50, 25, 12.5, 6.25, 3.13, 1.56, 0.78, 0.39, 0.19, 0.098, 0.049, and 0.024 μg/mL. Final concentration ranges of norfloxacin were 100, 50, 25, 12.5, 6.25, 3.13, 1.56, 0.78, 0.39, 0.19, 0.098, and 0.049 μg/mL. […] All samples were performed in triplicate. Following a 24 hour incubation at 37° C., cell growth was assessed by observing the presence of “acceptable growth”, defined by CLSI as a ≧2 mm button or definite turbidity. The MIC wells were defined as the lowest concentration where acceptable growth was not observed. For serial passage, 50 μL aliquots were taken from 2 of 3 replicate wells at 0.5×MIC and combined into 900 μL of fresh cation-adjusted Mueller-Hinton medium. The OD600 was measured and the cell suspensions were inoculated into polypropylene 96-well round bottom plates (90 μL volumes) at approximately 5×10^5 cfu/mL. Ten μL of compound stock solutions were added previously to the wells to achieve the concentration ranges for each compound described above. All samples were performed in triplicate. The plates were incubated for 24 hours at 37° C. This process was repeated for a total of 17 passages and MIC values were recorded at each passage.

[3] = test system: MSSA ATCC 29213; assay: Serial passage resistance, MSSA; type: cell-based, S. aureus; conditions: serial passage at 0.5×MIC
Experimental: as §1

[4] = test system: Staph. spidermidis; assay: MIC broth microdilution, Gram-positive clinical isolates; type: cell-based
Experimental: (§2) Compound A was evaluated in vitro in accordance with defined CLSI documents specific to the organisms (aerobic, anaerobic or yeast) tested in this study. Ampicillin, ceftazidime, cefuroxime, ciprofloxacin, linezolid, and vancomycin were tested alongside as comparator agents for aerobic bacteria; clindamycin and metronidazole were tested as comparators for anaerobes; fluconazole was tested as a comparator for yeast isolates. Stock solutions of Compound A were prepared in dimethyl sulfoxide (DMSO). Ampicillin, ceftazidime, cefuroxime, ciprofloxacin, linezolid, vancomycin, metronidazole, clindamycin, and fluconazole were prepared each according to its manufacturer's guideline.
(§3) Minimum inhibitory concentrations (MICs) in μg/ml were determined according to CLSI guideline M7-A7 by broth microdilution. All aerobes were tested using Mueller-Hinton broth medium with the exception of Streptococcus spp., which were tested using cation-adjusted Mueller-Hinton broth supplemented with 2-5% lysed horse blood.

[5] = test system: Klebsiella oxytoca; assay: MIC broth microdilution, Gram-negative clinical isolates; type: cell-based
Experimental: as §2, §3

[6] = test system: Proteus vulgarisi; assay: as above; type: cell-based
Experimental: as §2, §3

[7] = test system: Entero. faecalis; assay: MIC broth microdilution, Gram-positive clinical isolates; type: cell-based; conditions: Enterococcus faecalis
Experimental: as §2, §3

[8] = test system: Staph. spp. (coagulase−); assay: as above; type: cell-based
Experimental: as §2, §3

[9] = test system: Staph. aureus (MRSA); assay: as above; type: cell-based; conditions: Staphylococcus aureus
Experimental: as §2, §3

[10] = test system: Strept. viridians; assay: as above; type: cell-based
Experimental: as §2, §3

[11] = test system: Strept. pneumoniae; assay: as above; type: cell-based; conditions: Streptococcus pneumoniae
Experimental: as §2, §3

[12] = test system: Strept. pyogenes; assay: as above; type: cell-based; conditions: Streptococcus pyogenes
Experimental: as §2, §3

[13] = test system: Strept. agalactiae; assay: as above; type: cell-based; conditions: Streptococcus agalactiae
Experimental: as §2, §3

[14] = test system: Entero. faecium (VRE); assay: as above; type: cell-based; conditions: Enterococcus faecium
Experimental: as §2, §3

[15] = test system: Citrobacter freundi; assay: MIC broth microdilution, Gram-negative clinical isolates; type: cell-based
Experimental: as §2, §3

[16] = test system: Klebsiella pneumoniae; assay: as above; type: cell-based
Experimental: as §2, §3

[17] = test system: Enterobacter cloacae; assay: as above; type: cell-based
Experimental: as §2, §3

[18] = test system: Providencia stuartii; assay: as above; type: cell-based
Experimental: as §2, §3

[19] = test system: Pseudomonas aeruginosa; assay: as above; type: cell-based; conditions: 2-3 isolates/organism
Experimental: as §2, §3

[20] = test system: Stenotrophomonas maltophilia; assay: as above; type: cell-based
Experimental: as §2, §3

[21] = test system: Citrobacter koseri; assay: as above; type: cell-based
Experimental: as §2, §3

[22] = test system: Serratia marcescens; assay: as above; type: cell-based
Experimental: as §2, §3

[23] = test system: Acinetobacter spp.; assay: as above; type: cell-based; conditions: 2-3 isolates/organism
Experimental: as §2, §3

[24] = test system: Morganella morganii; assay: as above; type: cell-based
Experimental: as §2, §3

[25] = test system: Haemophilus influenzae; assay: as above; type: cell-based
Experimental: as §2, §3

[26] = test system: Escherichia coli; assay: as above; type: cell-based
Experimental: as §2, §3

[27] = test system: Proteus mirabilis; assay: as above; type: cell-based
Experimental: as §2, §3

[28] = test system: Staph. saprophyticus; assay: MIC broth microdilution, Gram-positive clinical isolates; type: cell-based; conditions: Staphylococcus saprophyticus
Experimental: as §2, §3

[29] = Staph. spidermidis, 2-3 isolates/organism, read-out: MIC
[30] = 2-3 isolates/organism, read-out: MIC
[31] = Proteus vulgarisi, 2-3 isolates/organism, read-out: MIC

SMILES: CC[C@H](C)[C@H](NC(=O)CN)C(=O)NCC(=O)N[C@@H](C)C(=O)N[C@H](C(=O)N[C@@H](CC(C)C)C(=O)N[C@@H](CCCCN)C(=O)N[C@H](C(=O)N[C@@H](CC(C)C)C(=O)N[C@H](C(=O)N[C@H](C(=O)NCC(=O)N[C@@H](CC(C)C)C(=O)N1CCC[C@H]1C(=O)N[C@@H](C)C(=O)N[C@@H](CC(C)C)C(=O)N[C@H](C(=O)N[C@@H](CO)C(=O)N[C@@H](Cc1c[nH]c2ccccc12)C(=O)N[C@H](C(=O)N[C@@H](CCCCN)C(=O)N[C@@H](CCCNC(=N)N)C(=O)N[C@@H](CCCCN)C(=O)N[C@@H](CCCNC(=N)N)C(=O)N[C@@H](CCC(N)=O)C(=O)N[C@@H](CCC(N)=O)C(N)=O)[C@@H](C)CC)[C@@H](C)CC)[C@@H](C)O)[C@@H](C)O)C(C)C)C(C)C [melittin, reference compound]
- MIC or MIC90* S. aureus [1]: 2 µg/mL (≈ 0.703 µM)

SMILES: CCn1cc(C(=O)O)c(=O)c2cc(F)c(N3CCNCC3)cc21 [norfloxacin, reference compound]
- increase in MIC by passage 15 [2]: 64 fold
- rise in MIC values by passage 3 [2]: 4 doubling dilutions
- increase in MIC by passage 15 [3]: 128 fold
- rise in MIC values by passage 3 [3]: 4 doubling dilutions

- MIC [4, 29]: 0.5 to 1 µg/mL (≈ 1.48 to 2.96 µM)
- MIC [5, 30]: > 16 µg/mL
- MIC [6, 31]: > 16 µg/mL
SMILES: CC(=O)NC[C@H]1CN(c2ccc(N3CCOCC3)c(F)c2)C(=O)O1 [Linezolid]

SMILES: CC(C)(O/N=C(\C(=O)N[C@@H]1C(=O)N2C(C(=O)[O-])=C(C[n+]3ccccc3)CS[C@H]12)c1csc(N)n1)C(=O)O [Ceftazidime]
- MIC ([7]; Entero. faecalis, 2-3 isolates/organism, read-out: MIC): > 64 µg/mL
- MIC [4, 29]: 16 to 32 µg/mL (≈ 29.3 to 58.5 µM)
- MIC ([8]; Staph. spp. (coagulase−), 2-3 isolates/organism, read-out: MIC): 16 to 32 µg/mL (≈ 29.3 to 58.5 µM)
- MIC ([9]; Staph. aureus (MRSA), 2-3 isolates/organism, read-out: MIC): 32 µg/mL (≈ 58.5 µM)
- MIC ([10]; Strept. viridians, 2-3 isolates/organism, read-out: MIC): 0.5 to 4 µg/mL (≈ 0.915 to 7.32 µM)
- MIC ([11]; Strept. pneumoniae, 2-3 isolates/organism, read-out: MIC): 0.25 µg/mL (≈ 0.457 µM)
- MIC ([12]; Strept. pyogenes, 2-3 isolates/organism, read-out: MIC): 0.12 µg/mL (≈ 0.22 µM)
- MIC ([13]; Strept. agalactiae, 2-3 isolates/organism, read-out: MIC): 0.5 µg/mL (≈ 0.915 µM)
- MIC ([14]; Entero. faecium (VRE), 2-3 isolates/organism, read-out: MIC): > 64 µg/mL
- MIC ([15]; Citrobacter freundi, 2-3 isolates/organism, read-out: MIC): 0.25 to 2 µg/mL (≈ 0.457 to 3.66 µM)
- MIC [16, 30]: 0.06 to 0.12 µg/mL (≈ 0.11 to 0.22 µM)
- MIC [17, 30]: 0.25 µg/mL (≈ 0.457 µM)
- MIC [18, 30]: 0.12 to 0.64 µg/mL (≈ 0.22 to 1.17 µM)
- MIC [19]: 1 to 8 µg/mL (≈ 1.83 to 14.6 µM)
- MIC [20, 30]: 4 to 8 µg/mL (≈ 7.32 to 14.6 µM)
- MIC [5, 30]: 0.06 to 0.12 µg/mL (≈ 0.11 to 0.22 µM)
- MIC [21, 30]: 0.12 to 0.25 µg/mL (≈ 0.22 to 0.457 µM)
- MIC [22, 30]: 0.12 to 0.25 µg/mL (≈ 0.22 to 0.457 µM)
- MIC [6, 31]: 0.12 µg/mL (≈ 0.22 µM)
- MIC [23]: 2 to 64 µg/mL (≈ 3.66 to 117 µM)
- MIC [24, 30]: 2 to 16 µg/mL (≈ 3.66 to 29.3 µM)
- MIC [25, 30]: 0.06 to 0.12 µg/mL (≈ 0.11 to 0.22 µM)
- MIC [26, 30]: 0.06 µg/mL (≈ 0.11 µM)
- MIC [27, 30]: 0.03 to 0.06 µg/mL (≈ 0.0549 to 0.11 µM)

SMILES: CN[C@H](CC(C)C)C(=O)N[C@H]1C(=O)N[C@@H](CC(N)=O)C(=O)N[C@H]2C(=O)N[C@H]3C(=O)N[C@H](C(=O)N[C@H](C(=O)O)c4cc(O)cc(O)c4-c4cc3ccc4O)[C@H](O)c3ccc(c(Cl)c3)Oc3cc2cc(c3O[C@@H]2O[C@H](CO)[C@@H](O)[C@H](O)[C@H]2O[C@H]2C[C@](C)(N)[C@H](O)[C@H](C)O2)Oc2ccc(cc2Cl)[C@H]1O [Vancomycin]
- MIC [7]: 1 µg/mL (≈ 0.69 µM)
- MIC [28]: 1 to 2 µg/mL (≈ 0.69 to 1.38 µM)
- MIC [4]: 2 µg/mL (≈ 1.38 µM)
- MIC [8]: 1 to 2 µg/mL (≈ 0.69 to 1.38 µM)
- MIC ([9]; MRSA): 0.5 to 1 µg/mL (≈ 0.345 to 0.69 µM)
- MIC [10]: 0.5 to 1 µg/mL (≈ 0.345 to 0.69 µM)
- MIC [11]: 0.5 µg/mL (≈ 0.345 µM)
- MIC [12]: 0.5 µg/mL (≈ 0.345 µM)
- MIC [13]: 0.5 µg/mL (≈ 0.345 µM)
- MIC ([14]; VRE): > 128 µg/mL
- MIC ([15]; Citrobacter): > 128 µg/mL
- MIC [16]: > 128 µg/mL
- MIC [17]: > 128 µg/mL
- MIC [18]: > 128 µg/mL
- MIC [20]: 32 to 128 µg/mL (≈ 22.1 to 88.3 µM)
- MIC [5]: > 128 µg/mL
- MIC [21]: > 128 µg/mL
- MIC [22]: > 128 µg/mL
- MIC [6]: > 128 µg/mL
- MIC [24]: > 128 µg/mL
- MIC [25]: 128 µg/mL (≈ 88.3 µM)
- MIC [26]: > 128 µg/mL
- MIC [27]: > 128 µg/mL
